Experimental data reported in patent US7220780B2, “Naaladase inhibitors for treating retinal disorders and glaucoma” (Guilford Pharmaceuticals Inc., priority 2000, dated 2007).

Biological target: NAALADase (Rattus norvegicus, UniProt P70627)
Assay: In vitro inhibition of NAALADase activity
Type: biochemical
Conditions: not given

Sequence of NAALADase (P70627 whole entry): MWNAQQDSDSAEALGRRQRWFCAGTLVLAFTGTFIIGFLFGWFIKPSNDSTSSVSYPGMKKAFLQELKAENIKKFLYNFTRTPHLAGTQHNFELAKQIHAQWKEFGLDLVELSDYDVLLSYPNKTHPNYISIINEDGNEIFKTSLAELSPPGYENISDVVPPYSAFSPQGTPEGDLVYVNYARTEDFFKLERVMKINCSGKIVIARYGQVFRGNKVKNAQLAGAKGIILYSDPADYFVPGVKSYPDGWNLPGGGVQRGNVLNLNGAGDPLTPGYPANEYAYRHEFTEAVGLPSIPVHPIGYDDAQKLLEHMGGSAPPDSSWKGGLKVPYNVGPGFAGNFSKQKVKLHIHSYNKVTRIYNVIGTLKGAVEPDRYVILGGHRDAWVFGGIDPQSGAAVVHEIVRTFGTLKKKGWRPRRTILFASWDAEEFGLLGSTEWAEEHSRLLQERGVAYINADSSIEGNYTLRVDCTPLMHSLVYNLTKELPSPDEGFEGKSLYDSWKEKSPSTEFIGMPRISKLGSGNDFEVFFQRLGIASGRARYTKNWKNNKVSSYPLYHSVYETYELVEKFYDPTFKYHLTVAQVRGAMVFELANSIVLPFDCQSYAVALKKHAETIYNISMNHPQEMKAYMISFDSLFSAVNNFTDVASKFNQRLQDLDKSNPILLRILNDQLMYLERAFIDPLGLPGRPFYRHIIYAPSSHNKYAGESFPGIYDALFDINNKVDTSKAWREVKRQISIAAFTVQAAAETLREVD

Compound	IC50 [µM]
3-(2-Carboxy-4-hydroxycarbamoyl-butyl)-benzoic acid	0.0478

Same assay, conditions: read-out: K1

Compound	Ki [µM]
O=C(O)Cc1cc(C(=O)O)ccc1C(=O)O [2-carboxymethyl-1,4-benzenedicarboxylic acid]	9
O=C(O)c1cc(OCCS)cc(C(=O)O)c1 [5-(2-mercaptoethoxy)-1,3-benzenedicarboxylic acid]	14.5
O=C(O)c1cc(CCS)cc(C(=O)O)c1 [5-(2-mercaptoethyl)-1,3-benzenedicarboxylic acid]	5.1
O=C(Cc1cc(C(=O)O)cc(C(=O)O)c1)NO [5-[2-(hydroxyamino)-2-oxoethyl]-1,3-benzenedicarboxylic acid]	12
O=C(O)CNc1cc(C(=O)O)cc(C(=O)O)c1 [5-[(carboxymethyl)amino]-1,3-benzenedicarboxylic acid]	100
O=C(O)c1cc(CNCc2ccco2)cc(C(=O)O)c1 [5-[[(2-furanylmethyl)amino]methyl]-1,3-benzenedicarboxylic acid]	50
O=C(O)c1cc(CS)cc(C(=O)O)c1 [5-mercaptomethyl-1,3-benzenedicarboxylic acid]	6.5
O=C(O)c1cc(C(=O)O)cc(P(=O)(O)O)c1 [5-phosphono-1,3-benzenedicarboxylic acid]	14

Further lines, results first:

Ki [µM]	Compound
1.87	O=C(O)c1ccc(C(=O)O)c(S(=O)(=O)c2cc(C(=O)O)ccc2C(=O)O)c1 [2-[(2,5-dicarboxyphenyl)sulfonyl]-1,4-benzenedicarboxylic acid]
0.572	O=C(O)c1ccc(C(=O)O)c(Sc2ccccc2C(=O)O)c1 [2-[(2-carboxyphenyl)thio]-1,4-benzenedicarboxylic acid]
2.37	O=C(O)c1ccc(S(=O)(=O)c2cc(C(=O)O)ccc2C(=O)O)cc1 [2-[(4-carboxyphenyl)sulfonyl]-1,4-benzenedicarboxylic acid]
0.116	O=C(O)c1ccc(CCS)c(C(=O)O)c1 [4-(2-mercaptoethyl)-1,3-benzenedicarboxylic acid]
3.75	O=C(O)c1ccc(OCCCSSCCCOc2ccc(C(=O)O)cc2C(=O)O)c(C(=O)O)c1 [4-[3-[[3-(2,4-dicarboxyphenoxy)-propyl]-dithio]propoxy]-1,3-benzenedicarboxylic acid]
1.17	O=C(O)c1ccc(C(=O)c2ccc(Oc3ccc(C(=O)O)c(C(=O)O)c3)cc2)c(C(=O)O)c1 [4-[4-(2,4-dicarboxybenzoyl)phenoxy]-1,2-benzenedicarboxylic acid]
3.98	O=C(O)c1ccc(Sc2ccccc2C(=O)O)c(C(=O)O)c1 [4-[(2-carboxyphenyl)thio]-1,3-benzenedicarboxylic acid]
3.3	O=C(O)c1cc(OCCCS)cc(C(=O)O)c1 [5-(3-mercaptopropoxy)-1,3-benzenedicarboxylic acid]
1	O=C(O)c1cc(C(=O)O)cc(C(=O)NO)c1 [5-[(hydroxyamino)-carbonyl]-1,3-benzenedicarboxylic acid]
3.1	O=C(O)c1cc(CP(=O)(O)O)cc(C(=O)O)c1 [5-phosphonomethyl-1,3-benzenedicarboxylic acid]
